# According to patent US6737237B1, “Antimicrobial agents, diagnostic reagents, and vaccines based on unique Apicomplexan parasite components” (Apicomplexan Therapeutics, LLC, priority 1999, dated 2004):
# Columns and labels:
# [1] = tested on: T. gondii; test: Assay for synergy in vitro: inhibitors alone and together on replication of T. gondii (uracil CPM); type: cell-based, Toxoplasma gondii; settings: for CPM for B: Drug B alone: Sulfadiazine (6.25 μg/ml), Pyrimethamine (0.025 μg/ml), SHAM (0.78 μg/ml)
# Excerpt: The effect of enzymes in pathways “in parallel” are additive and in “series” are more than the additive effect of either inhibitor used alone (i.e., synergistic). […] The shikimate pathway produces 3,4-dihdroxybenzoate which is converted to ubiquinone, an essential component of the electron transport chain. Thus, NPMG, an inhibitor of EPSP-synthase, indirectly affects ubiquinone production and, thus, the electron transport chain. Similarly, heme is required for production of cytochromes in the electron transport chain. Thus, inhibition of heme production by gabaculine also indirectly affects the conventional electron transport chain. […] T. gondii growth is measured by their ability to incorporate tritiated uracil and is expressed as counts/minute (CPM).
# g) Assays for Synergy in vitro: This is an assy in which ≦50% inhibitor concentrations of two antimicrobial agents are added alone and together to determine whether there is an additive, synergistic or inhibitory interaction. All other aspects of this assay are as described herein.
# [2] = tested on: Toxoplasma gondii ACC; test: ACC activity in T. gondii tachyzoite protein extracts (carboxyl incorporation from bicarbonate); type: biochemical
# Excerpt: In plants, genes encoding enzymes for fatty acid synthesis, including various subunits of ACC except one, are present in the nuclear genome and their protein products are imported and function in plastids. ACC, catalyzing the first committed step of de novo fatty acid biosynthesis, is a known selective target of aryloxyphenoxypropionate (“fops”) and cyclohexanedione (“dims”) herbicides in sensitive species. The molecular mechanism of inhibition/resistance of the enzyme is not know but there is a strong correlation between the enzyme structure and its origin. The high molecular weight multi-domain ACC that is localized in plastids of grasses is extremely sensitive to these herbicides. All of the multi-subunit chloroplast enzymes of dicot plants and bacteria as well as other multi-domain cytosolic ACCs, such as those from man, chicken, rat and yeast, are resistant. ACC activity is conveniently measured in vitro by the incorporation of the carboxyl group from bicarbonate into an acid-stable form using crude protein extracts after Sephadex G50 filtration. […] One band at 240 kDa corresponded to the expected size for a subunit of ACC, while another at 130 kDA corresponded to the size expected for pyruvate carboxylase (PC).
# (§1) Structures of fops and dims were tested on the ACC-containing protein extracts of T. gondii described above. Three of the four fops were striking inhibitors of the activity, while none of the dims had any effect against the enzyme. […] Effects of the herbicides on uninfected fibroblasts and on T. gondii growth and replication were tested as previously described by Roberts et al., 1998 using incorporation of radiolabeled thymidine by growing fibroblasts to assess toxicity and incorporation of radiolabeled uracil to measure T. gondii growth and persistence. Anti-parasite activity and toxicity for four fops and one representative dim were determined. Pyrimethamine and sulfadiazine, antimicrobial agents which are known inhibitors of folate synthesis, were included as positive control. […] Consistent with the data for ACC activity in vitro, the inhibitory activity of the fops and the dim on T. gondii growth in fibroblasts was in the same concentration range. […] With regard to toxicity, fops are mildly toxic at the highest concentration, 400 μM. In separate experiments, the effect of Clodinafop on T. gondii was assessed by light microscopy. […] In this experiment, cultures were incubated for 2 more days without the inhibitor.
# [3] = tested on: T. gondii tachyzoites (RH strain); test: microbe, parasite or virus in culture; type: cell-based, Toxoplasma gondii
# Description: The improvements are based on microscopic visual imspection of infected and inhibitor treated cultures, and on quantitation of nucleic acid synthesis of the parasite by measure intake of ^3H uracil onto the parasite's nucleic acid. Uracil is not utilized by mammalian cells. […] Only the RH strain tachyzoites, cultured for up to 72 hours, had been used in previously reported assays. The use of Me49, Ptg, and R5 mutant are unique aspects of the methods used in these assays in this invention.
# (§2) In these assays toxicity of a candidate inhibitor was assessed by its ability to prevent growth of human foreskin fibroblasts (HFF) after 4 days and after 8 days as measured by tritiated thymidine uptake and microscopic evaluation. Confluent monolayers of HFF were infected with tachyzoites and bradyzoites. Inhibitor was added one hour later. Non-toxic doses were used in parasite growth inhibition assays. Parasite growth was measured by ability to incorporate tritiated uracil during the last 18 hours of culture.
# (§3) First the toxicity of gabaculine was assessed by its ability to prevent growth of human foreskin fibroblasts (HFF) as measured by ^3H-thymidine uptake and microscopic evaluation. Non-toxic doses were used in parasite growth inhibition assays. in vitro parasite growth inhibition assays included confluent monolayers of HFF infected with tachyzoites (RH) or mutant Me49 (R5). Gabaculine was added 1 hour later. Parasite growth was measured by the ability to incorporate ^3H-uracil during the last 18 hours of culture. In addition, parasite growth was evaluated microscopically in Giemsa stained slides.
# ii) in vitro Parasite Growth Inhibition Assays: Confluent monolayers of HFF cells, grown in 96-well plates are infected with T. gondii tachyzoites of the RH strain and serial dilutions of anti-microbial compound are applied 1 hour later. T. gondii growth is assessed in these cultures by their ability to incorporate tritiated uracil (2.5 μCi/well) added during the last 18 hours of culture. After harvesting cells with an automatic cell harvester, uracil incorporation is measured by liquid scintillation.
# [4] = tested on: C. parvum; test: C. parvum infection of MDBKF5D2 cell monolayers, immunofluorescence assay at 48 hours; type: cell-based, Cryptosporidium parvum
# Description: C. parvum oocysts at 50,000/well were incubated at 37° C. (8% CO2) on confluent MDBKF5D2 cell monolayers in 96 well microtiter plates with the following concentrations of each drug. […] The level of infection of each well was determined and analyzed by an immunofluorescence assay at 48 hours using an antibody to C. parvum sporozoites made in rabbits at a concentration of 0.1%. Fluorescein-conjugated goat anti-rabbit antibody was used at a concentration of 1%.
# (8% carbon dioxide) on confluent MDBKF5D2 cell monolayers in 96 well microtiter plates. The level of infection of each well was determined and analyzed by an immunofluorescence assay at 48 hours using as an antibody C. parvum sporozoite rabbit anti-serum (0.1%), and using fluorescein-conjugated goat anti-rabbit antibody (1%). Data are expressed as mean parasite count/field when 16 fields counted at 10× magnification “s.d. of the mean” (FIG. 6).
# [5] = tested on: D6 clone of Plasmodium falciparum; test: P. falciparum in vitro assay (Milhous et al., 1985), D6 clone; type: cell-based; settings: D6, 66 h
# [6] = tested on: T. gondii; test: Effect of inhibitors on T. gondii infection in vivo (manifestations, parasitemia, brain cysts); design: species or system mice; settings: mouse
# Description: Cyst numbers present in a suspension of brain are enumerated, or cyst numbers in formalin fixed paraffin embedded sections are quantitated.
# c) Persistance of Cysts: C3H/He mice are infected orally with 100 cysts of T. gondii (Me49 strain). Inhibitors are administered to groups of mice from day 30 post infection to day 50 post infection. Cyst burden, mortality and pathology are compared in treated and control mice on days 30 and 50 post infection and in mice that receive antibody to gamma interferon which leads to recrudescence of disease.
# A method to measure the amount of parasitemia in mouse peripheral blood has been developed. Briefly, the target for PCR amplification is the 35 fold repetitive B1 gene of T. gondii and the amplification was performed using primers previously reported. […] Competitive PCR was performed by spiking individual reactions (containing equal amounts of genomic DNA) with a dilution of the internal standard. Since this internal control contains the same primer template sequences, it competes with the B1 gene of T. gondii for primer binding and amplification. The sensitivity of the PCR reaction in each sample can be monitored. Following competitive PCR, the PCR products are distinguished by size and the amount of products generated by the target and internal standard can be compared on a gel. […]
# [7] = tested on: human foreskin fibroblasts (HFF); test: Toxicity: growth of fibroblasts, tritiated thymidine uptake and microscopic evaluation; type: cell-based; settings: herbicide experiments
# Description: as §2, §3
# d) Inhibitors: Inhibitor compounds are tested over a range of concentrations for toxicity against mammalian cells by assessing their ability to prevent cell growth as measured by tritiated thymidine uptake and inspection of the monolayer using microscopic evaluation. […]
# [8] = tested on: Toxoplasma tachyzoites; test: Light microscopy of T. gondii infected fibroblasts treated with Clodinafop; type: cell-based, Toxoplasma gondii; settings: for parasites in infected fibroblasts: 4-day treatment, one change of medium and inhibitor after 2 days, then 2 more days without inhibitor; for number of T. gondii cells in infected fibroblasts: two days
# Description: as §1
smiles,measurement,setting,value
CCc1nc(N)nc(N)c1-c1ccc(Cl)cc1 [Pyrimethamine],CPM for B,[1],69217 ± 3253 CPM
CC(Oc1ccc(Oc2ccc(C(F)(F)F)cn2)cc1)C(=O)O (centres unmarked) [Fluazifop],effect on T. gondii ACC activity in crude extracts,[2],relatively low inhibitory activity
CC(Oc1ccc(Oc2ncc(C(F)(F)F)cc2Cl)cc1)C(=O)O (centres unmarked) [Haloxyfop],inhibition of ACC activity,[2]; 20 μM,50%
same,inhibition of ACC activity,[2]; 100 μM,90%
"Oc1cccc2cccnc12 [8-OH-quinoline, 8-hydroxyquinoline]",activity against T. gondii (tachyzoites),[3],effective
same,approximate 95% C1 count (mean parasite count per field),"[4]; 8-OH-quinoline 0.1 μg/ml, media alone ~1800",~1300
same,approximate 95% C1 count (mean parasite count per field),"[4]; 8-OH-quinoline 1 μg/ml, media alone ~1800",~1100
same,approximate 95% C1 count (mean parasite count per field),"[4]; 8-OH-quinoline 10 μg/ml, media alone ~1800",~900
same,approximate 95% C1 count (mean parasite count per field),"[4]; 8-OH-quinoline 100 μg/ml, media alone ~1800",~300
same,IC50,[5],1.2 µg/mL
same,IC90,[5],1.88 µg/mL
Nc1ccc(S(=O)(=O)Nc2ncccn2)cc1 [Sulfadiazine],growth of T. gondii reduced,[3],about 60%
same,CPM for B,[1],25026 ± 4365 CPM
same,manifestations of infection in vivo,[6],reduced manifestations of infection
CC1(C)N=C(N)N=C(N)N1c1ccc(Cl)cc1 [Cycloguanil],combined effect of two inhibitors in vitro (additive or synergistic),[1]; T. gondii in culture,synergistic with NPMG
"O=C(NO)c1ccccc1O [SHAM, Salicylhydroxamic acid]",CPM restricted (tritiated uracil incorporation),"[3]; SHAM 0.16 μg/ml (0.19), 4 day, medium around 54,000 CPM",around 50%
same,counts (tritiated uracil incorporation),"[3]; SHAM 0.78 μg/ml, 4 day, medium around 54,000, no RH around 1,000 CPM","about 8,000 CPM"
same,CPM for B,[1],42993 ± 1098 CPM
same,approximate 95% C1 count (mean parasite count per field),"[4]; SHAM 0.1 μg/ml, 0.2% ETOH, media and ethanol ~1200",~1200
same,approximate 95% C1 count (mean parasite count per field),"[4]; SHAM 1 μg/ml, 0.2% ETOH, media and ethanol ~1200",~1100
same,approximate 95% C1 count (mean parasite count per field),"[4]; SHAM 10 μg/ml, 0.2% ETOH, media and ethanol ~1200",~1100
same,approximate 95% C1 count (mean parasite count per field),"[4]; SHAM 100 μg/ml, 0.2% ETOH, media and ethanol ~1200",~400
same,parasitemia and number of brain cysts,[6],affects parasitemia and number of brain cysts
"CC(Oc1ccc(Oc2cnc3cc(Cl)ccc3n2)cc1)C(=O)O (centres unmarked) [Quizalofop, ()-2-[4-[(6-chloro-2-quinoxalinyl)oxy]phenoxy]propanoic acid]",inhibition of ACC activity,[2]; 20 μM,50%
same,inhibition of ACC activity,[2]; 100 μM,90%
C[C@@H](Oc1ccc(Oc2ncc(Cl)cc2F)cc1)C(=O)O [Clodinafop],toxicity for fibroblasts (thymidine incorporation),[7],not toxic
same,inhibition of ACC activity,[2]; 20 μM,50%
same,inhibition of ACC activity,[2]; 100 μM,90%
same,inhibition of growth of T. gondii in human fibroblasts (uracil incorporation),[3]; 10 μM,70%
same,parasites in infected fibroblasts,[8]; 10 μM,No parasite cells were found
same,parasites in infected fibroblasts,"[8]; 10 μM, listed as clodinafop",complete eradication
same,number of T. gondii cells in infected fibroblasts,[8]; 10 μM,substantial reduction
same,number of T. gondii cells in infected fibroblasts,[8]; 100 μM,almost complete removal
NC[C@@H]1O[C@H](O[C@H]2[C@@H](O)[C@H](O[C@@H]3[C@@H](O)[C@H](N)C[C@H](N)[C@H]3O[C@H]3O[C@H](CO)[C@@H](O)[C@H](O)[C@H]3N)O[C@@H]2CO)[C@H](N)[C@@H](O)[C@@H]1O [paromomycin],approximate 95% C1 count (mean parasite count per field),"[4]; PRM without ethanol, media alone ~1800",~200
same,approximate 95% C1 count (mean parasite count per field),"[4]; paromomycin (PRM) and ethanol, media and ethanol ~1200",~100
